test system: BCL-2-dependent acute lymphoblastic leukemia (ALL) cell line RS4;11 overexpressing Bcl-2 G101V; assay: cells; format: cell-based; conditions: Homo sapiens, RS4-11, 72 h, read-out: RS4;11-G101V IC50
Method: Biological Example 2: In vitro Anti-proliferation Assay in BCL-2-dependent acute lymphoblastic leukemia (ALL) cell line RS4; 11 overexpressing Bcl-2 G101V
Cell antiproliferation was assayed by PerkinElmer ATPlite™ Luminescence Assay System. Briefly, the various test cancer cell lines were plated at a density of about 1×10^4 cells per well in Costar 96-well plates, and were incubated with different concentrations of compounds for about 72 hours in medium supplemented with 5% FBS or 10% normal human serum (NHS). One lyophilized substrate solution vial was then reconstituted by adding 5 mL of substrate buffer solution, and was agitated gently until the solution was homogeneous. About 50 μL of mammalian cell lysis solution was added to 100 μL of cell suspension per well of a microplate, and the plate was shaken for about five minutes in an orbital shaker at −700 rpm. This procedure was used to lyse the cells and to stabilize the ATP. Next, 50 μL substrate solution was added to the wells and microplate was shaken for five minutes in an orbital shaker at −700 rpm. Finally, the luminescence was measured by a PerkinElmer TopCount® Microplate Scintillation Counter. Such assays, carried out with a range of doses of test compounds, allowed the determination of the cellular anti-antiproliferative IC50 of the compounds of the present invention.

Structure (SMILES)	IC50 [nM]
COc1cc(C(N)=O)ccc1NC(=O)[C@@H]1N[C@@H](CC(C)(C)C)[C@@]2(CNc3cc(Cl)ccc32)[C@H]1c1cccc(Cl)c1F [Example 1, (2′S,3S,4′S,5′R)—N-(4-carbamoyl-2-methoxyphenyl)-6-chloro-4′-(3-chloro-2-fluorophenyl)-2′-neopentylspiro[indoline-3,3′-pyrrolidine]-5′-carboxamide]	33

same assay, conditions: Homo sapiens, RS4-11; about 72 hours, ATPlite luminescence; read-out: RS4;11-G101V IC50

IC50 [nM]	Structure (SMILES)
> 1000	COc1cc(C(=O)N2CCCC[C@@H]2C#CC#Cc2cccc3c2CN(C2CCC(=O)NC2=O)C3=O)ccc1NC(=O)[C@@H]1N[C@@H](CC(C)(C)C)[C@@]2(CNc3cc(Cl)ccc32)[C@H]1c1cccc(Cl)c1F (stereo partly drawn) [Example 46, (2′S,3S,4′S,5′R)-6-chloro-4′-(3-chloro-2-fluorophenyl)-2′-(2,2-dimethylpropyl)-N-{4-[(2R)-2-{4-[2-(2,6-dioxopiperidin-3-yl)-1-oxo-3H-isoindol-4-yl]buta-1,3-diyn-1-yl}piperidine-1-carbonyl]-2-methoxyphenyl}-1,2-dihydrospiro[indole-3,3′-pyrrolidine]-5′-carboxamide]
> 1000	COc1cc(C(=O)N2CCCC[C@H]2C#CC#Cc2cccc3c2CN(C2CCC(=O)NC2=O)C3=O)ccc1NC(=O)[C@@H]1N[C@@H](CC(C)(C)C)[C@@]2(CNc3cc(Cl)ccc32)[C@H]1c1cccc(Cl)c1F (stereo partly drawn) [Example 47, (2′S,3S,4′S,5′R)-6-chloro-4′-(3-chloro-2-fluorophenyl)-2′-(2,2-dimethylpropyl)-N-{4-[(2S)-2-{4-[2-(2,6-dioxopiperidin-3-yl)-1-oxo-3H-isoindol-4-yl]buta-1,3-diyn-1-yl}piperidine-1-carbonyl]-2-methoxyphenyl}-1,2-dihydrospiro[indole-3,3′-pyrrolidine]-5′-carboxamide]
11.2	COc1cc(C(=O)N2CC(C#Cc3cccc4c3CN(C3CCC(=O)NC3=O)C4=O)C2)ccc1NC(=O)[C@@H]1N[C@@H](CC(C)(C)C)[C@@]2(CNc3cc(Cl)ccc32)[C@H]1c1cccc(Cl)c1F (stereo partly drawn) [Example 55, (2′S,3S,4′S,5′R)-6-chloro-4′-(3-chloro-2-fluorophenyl)-2′-(2,2-dimethylpropyl)-N-[4-(3-{2-[2-(2,6-dioxopiperidin-3-yl)-1-oxo-3H-isoindol-4-yl]ethynyl}azetidine-1-carbonyl)-2-methoxyphenyl]-1,2-dihydrospiro[indole-3,3′-pyrrolidine]-5′-carboxamide]

Continued, compound first:

Structure (SMILES)	IC50 [nM]
COc1cc(C(N)=O)ccc1NC(=O)[C@@]1(C)N[C@H](CC(C)(C)C)[C@]2(CNc3cc(Cl)ccc32)[C@@H]1c1cccc(Cl)c1F [Example 8, (2′R,3R,4′R,5′S)—N-(4-carbamoyl-2-methoxyphenyl)-6-chloro-4′-(3-chloro-2-fluorophenyl)-2′-(2,2-dimethylpropyl)-5′-methyl-1,2-dihydrospiro[indole-3,3′-pyrrolidine]-5′-carboxamide]	127
COc1cc(C(=O)N[C@H]2CCCC[C@H]2CC#Cc2cccc3c2CN(C2CCC(=O)NC2=O)C3=O)ccc1NC(=O)[C@@H]1N[C@@H](CC(C)(C)C)[C@@]2(CNc3cc(Cl)ccc32)[C@H]1c1cccc(Cl)c1F (stereo partly drawn) [Example 40, (2′S,3S,4′S,5′R)-6-chloro-4′-(3-chloro-2-fluorophenyl)-2′-(2,2-dimethylpropyl)-N-(4-{[(1S,2S)-2-{3-[2-(2,6-dioxopiperidin-3-yl)-1-oxo-3H-isoindol-4-yl]prop-2-yn-1-yl}cyclohexyl]carbamoyl}-2-methoxyphenyl)-1,2-dihydrospiro[indole-3,3′-pyrrolidine]-5′-carboxamide]	11.4
COc1cc(C(=O)N[C@@H]2CCCC[C@@H]2CC#Cc2cccc3c2CN(C2CCC(=O)NC2=O)C3=O)ccc1NC(=O)[C@@H]1N[C@@H](CC(C)(C)C)[C@@]2(CNc3cc(Cl)ccc32)[C@H]1c1cccc(Cl)c1F (stereo partly drawn) [Example 41, (2′S,3S,4′S,5′R)-6-chloro-4′-(3-chloro-2-fluorophenyl)-2′-(2,2-dimethylpropyl)-N-(4-{[(1R,2R)-2-{3-[2-(2,6-dioxopiperidin-3-yl)-1-oxo-3H-isoindol-4-yl]prop-2-yn-1-yl}cyclohexyl]carbamoyl}-2-methoxyphenyl)-1,2-dihydrospiro[indole-3,3′-pyrrolidine]-5′-carboxamide]	54.3

Reference: US20250073340A1, “SPIROCYCLIC MDM2 MODULATOR AND USES THEREOF” (Newave Pharmaceutical Inc., priority 2021, published 2025)
